This note sets out measurements from US20110112135A1, “Imidazo [1,2-A] Pyridine Compounds” (priority 2007, published 2011).

Read-outs that look alike come from different tables or passages of the source.

In test [1] the test system is ABCA1 gene. Nature of the test: Quantitative analysis of ABCA1 gene regulation in THP-1 cells (real-time PCR). It is filed as cell-based, human. The conditions noted are these: for EC50: read-out: EC50 ABCA1; for Emax: LXR agonist reference at 1.0 uM as positive control, read-out: Agonism ABCA1. On the procedure: III. Quantitative Analysis of ABCA1 Gene Regulation in THP-1 Cells. The compounds of formula (I) effect on the regulation of the ABCA1 gene was evaluated using the following procedure. Materials and Methods Cell culture: The THP-1 monocytic cell line (ATCC #TIB-202) was obtained from American Type Culture Collection (Manassas, Va.) and cultured in RPMI 1640 medium (Gibco, Carlsbad, Calif.) containing 10% FBS, 2 mM L-glutamine, and 55 uM beta-Mercaptoethanol (BME). […] Louis, Mo.) for three days to induce differentiation into adherent macrophages. Differentiated THP-1 cells were treated with test compounds or ligands dissolved in DMSO (Sigma, D-8779) in culture medium lacking phorbal ester. […] Dose response effects were measured in duplicate, in the range of 0.001 to 30 micromolar concentrations and treated cells were incubated for an additional 18 hrs prior to RNA isolation. Unstimulated cells treated with vehicle were included as negative controls on each plate. […] L., J. Med. Chem. (2000), 45:1963-1966.). Results of antagonist analysis are expressed as % antagonism and IC50 (in μM). RNA isolation and quantitation: Total cellular RNA was isolated from treated cells cultured in 96-well plates using PrepStation 6100 (Applied Biosystems, Foster City, Calif.), according to the manufacturer's recommendations. RNA was resuspended in ribonuclease-free water and stored at -70° C. prior to analysis. RNA concentrations were quantitated with RiboGreen test procedure, #R-11490 (Molecular Probes, Eugene, Oreg.). Gene expression analysis: Gene-specific mRNA quantitation was performed by real-time PCR with the Perkin Elmer Corp. chemistry on an ABI Prism 7700 Sequence detection system (Applied Biosystems, Foster City, Calif.) according to the manufacturer's instructions. Samples (50-100 ng) of total RNA were assayed in duplicate or triplicate in 50 ul reactions using one-step RT-PCR and the standard curve method to estimate specific mRNA concentrations. Sequences of gene-specific primer and probe sets were designed with Primer Express Software (Applied Biosystems, Foster City, Calif.). […] Relative levels of ABCA1 mRNA are normalized using GAPDH mRNA or 18S rRNA probe/primer sets purchased commercially (Applied Biosystems, Foster City, Calif.). Statistics: Mean, standard deviation and statistical significance of duplicate evaluations of RNA samples were assessed using ANOVA, one-way analysis of variance using SAS analysis. Reagents: -GAPDH Probe and Primers-Taqman GAPDH Control Reagents 402869 or 4310884E 18S Ribosomal RNA-Taqman 18S Control Reagents 4308329 […] Qiagen Quantitect probe RT-PCR 204443.
For orientation: Quantitative PCR measures a nucleic acid by following its amplification.

Test [2] has as its target T1, human LXRα (Homo sapiens, UniProt Q13133).
T1 construct: biotin (biotinylated); made in house; host or cells: E. coli (crude extract)
T1 sequence (Q13133 1-447): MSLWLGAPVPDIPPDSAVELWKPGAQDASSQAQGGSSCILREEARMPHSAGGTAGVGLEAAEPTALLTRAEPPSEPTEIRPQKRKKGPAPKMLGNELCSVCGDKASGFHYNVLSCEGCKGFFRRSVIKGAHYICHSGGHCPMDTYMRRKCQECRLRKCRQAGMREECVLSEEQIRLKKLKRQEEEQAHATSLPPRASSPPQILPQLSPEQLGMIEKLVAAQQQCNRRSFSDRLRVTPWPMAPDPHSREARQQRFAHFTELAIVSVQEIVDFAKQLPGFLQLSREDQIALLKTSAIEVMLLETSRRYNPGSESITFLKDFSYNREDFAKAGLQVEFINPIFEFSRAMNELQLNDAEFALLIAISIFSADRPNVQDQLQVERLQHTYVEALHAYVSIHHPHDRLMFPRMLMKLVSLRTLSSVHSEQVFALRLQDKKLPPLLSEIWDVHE
As to the kind of experiment: Ligand-binding test procedure for human LXRα (3H T0901317 tracer, flash plates). The conditions noted are these: biotinylated hLXRα from E. coli extract; tracer 3H T0901317. The method in brief:
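Biotinylated hLXRα from E. coli extract (50 mM Tris) captured on streptavidin flash plates overnight at 4 °C. Compound dilution series mixed with 5 nM [3H]T0901317 (concentration before mixing), incubated overnight at 4 °C; wells aspirated, washed and remaining radioactivity counted.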

In test [3] the target is T2, human LXRβ (Homo sapiens, UniProt P55055).
T2 construct: biotin (biotinylated); made in house; host or cells: E. coli (crude extract)
T2 sequence (P55055 1-460): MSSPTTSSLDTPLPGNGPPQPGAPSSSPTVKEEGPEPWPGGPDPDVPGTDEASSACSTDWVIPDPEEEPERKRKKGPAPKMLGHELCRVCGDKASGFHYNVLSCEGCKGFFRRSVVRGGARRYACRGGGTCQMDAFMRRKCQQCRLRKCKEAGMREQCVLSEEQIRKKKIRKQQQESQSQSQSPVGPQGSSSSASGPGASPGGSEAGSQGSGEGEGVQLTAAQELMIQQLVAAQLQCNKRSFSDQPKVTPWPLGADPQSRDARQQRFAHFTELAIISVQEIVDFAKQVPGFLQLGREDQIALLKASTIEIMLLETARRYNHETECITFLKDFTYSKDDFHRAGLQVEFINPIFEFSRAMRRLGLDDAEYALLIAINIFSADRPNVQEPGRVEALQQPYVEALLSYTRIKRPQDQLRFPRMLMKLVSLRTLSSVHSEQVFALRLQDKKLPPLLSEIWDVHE
As to the kind of experiment: Ligand-binding test procedure for human LXRβ (3H T0901317 tracer, flash plates). The conditions noted are these: biotinylated hLXRβ from E. coli extract; tracer 3H T0901317. The method in brief: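 Biotinylated hLXRβ from E. coli extract was captured on streptavidin flash plates (Bmax ~4000 cpm) at 4 °C overnight. Test ligand dilutions were mixed with 5 nM [3H]T0901317 tracer solution and incubated on the plates overnight at 4 °C; bound radioactivity was counted after washing.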

Where [4] appears, read: Gene regulation by LXR (Human), differentiated THP-1 cells, 18 hrs, ABCA1 mRNA.
Where [5] appears, read: Gene regulation by LXR (Human), differentiated THP-1 cells, 18 hrs.

One may read the EC50 as the concentration that produces a half-maximal response. The term IC50 denotes the concentration that inhibits the measured activity by half. Low readings indicate greater potency in that assay, high ones weaker potency in that assay. On to `CCc1nc2c(Cl)cccn2c1-c1cccc(Oc2cccc(S(=O)(=O)CC)c2)c1` [Example 64, 8-chloro-2-ethyl-3-{3-[3-(ethylsulfonyl)phenoxy]phenyl}imidazo[1,2-a]pyridine], for which the EC50 in test [1] (setting [4]) amounted to 640 nM. In addition, in test [1] (setting [5]), the Emax stood at 79%. Further, the IC50 in test [2] was 399 nM; in test [3], 15.1 nM.

In the case of `CNS(=O)(=O)c1cccc(Oc2cccc(-c3c(C(C)C)nc4c(Cl)cccn34)c2)c1` [Example 49, 3-[3-(8-chloro-2-isopropylimidazo[1,2-a]pyridin-3-yl)phenoxy]-N-methylbenzenesulfonamide], the Emax in test [1] (setting [5]) is 101%. In test [1] (Homo sapiens, THP-1, 18 h), the 50% effective concentration (EC50) came to 794 nM.

For the compound `CCc1nc2c(C#N)cccn2c1-c1cccc(Oc2cccc(S(=O)(=O)CC)c2)c1` [Example 70, 2-ethyl-3-{3-[3-(ethylsulfonyl)phenoxy]phenyl}imidazo[1,2-a]pyridine-8-carbonitrile], the EC50 in test [1] (setting [4]) turned out to be 1260 nM. Further, the Emax in test [1] (setting [5]) was 95%. The half-inhibitory concentration (IC50) in test [2] was found to be 4670 nM; in test [3], 107 nM.

Turning to `CCS(=O)(=O)c1cccc(Oc2ccc(Cl)c(-c3c(C(C)C)nc4c(C#N)cccn34)c2)c1` [Example 83, 3-{2-chloro-5-[3-(ethylsulfonyl)phenoxy]phenyl}-2-isopropylimidazo[1,2-a]pyridine-8-carbonitrile], the concentration for a half-maximal effect (EC50) in test [1] (setting [4]) was determined as 260 nM. Further, the Emax in test [1] (setting [5]) turned out to be 76%. The IC50 in test [2] was 218 nM; in test [3] it was 6.8 nM.

Consider `CC(C)c1nc2c(Cl)cccn2c1-c1cccc(Oc2cccc(S(=O)(=O)C(C)C)c2)c1` [Example 68, 8-chloro-2-isopropyl-3-{3-[3-(isopropylsulfonyl)phenoxy]phenyl}imidazo[1,2-a]pyridine], for which the EC50 in test [1] (setting [4]) was determined as 1260 nM. Also, the Emax in test [1] (setting [5]) was 93%. The 50% inhibitory concentration (IC50) in test [2] turned out to be 406 nM; in test [3], 7.1 nM.

Turning to `CS(=O)(=O)c1cccc(Oc2cccc(-c3c(CN4CCSC4)nc4c(C(F)(F)F)cccn34)c2)c1` [Example 133, 3-{3-[3-(methylsulfonyl)phenoxy]phenyl}-2-(1,3-thiazolidin-3-ylmethyl)-8-(trifluoromethyl)imidazo[1,2-a]pyridine], in test [1] (setting [5]), the Emax came to 98%. The EC50 in test [1] (Homo sapiens, THP-1, 18 h) turned out to be 10 nM.

`CS(=O)(=O)c1cccc(Oc2ccc(-c3c(-c4ccsc4)nc4c(C(F)(F)F)cccn34)cc2)c1` [Example 127, 3-{4-[3-(methylsulfonyl)phenoxy]phenyl}-2-thiophen-3-yl-8-(trifluoromethyl)imidazo[1,2-a]pyridine]: in test [1] (setting [4]), the concentration for a half-maximal effect (EC50) amounted to 480 nM. For the same compound, the Emax in test [1] (setting [5]) is 25%. In test [3], the half-maximal inhibitory concentration (IC50) was found to be 113 nM.

`CC(C)c1nc2c(C(F)(F)F)cccn2c1-c1ccc(-c2ccc(S(=O)(=O)C(C)C)cc2)cc1` [Example 91, 2-isopropyl-3-(4′-(isopropylsulfonyl)biphenyl-4-yl)-8-(trifluoromethyl)imidazo[1,2-a]pyridine]: in test [1] (setting [4]), the concentration for a half-maximal effect (EC50) was determined as 2780 nM. In addition, the Emax in test [1] (setting [5]) amounted to 33%. In addition, the concentration for half-maximal inhibition (IC50) in test [2] and in test [3] was more than 1000 nM in each case.

For the compound `CC(C)(C)c1nc2c(C(F)(F)F)cccn2c1-c1cccc(Oc2cccc(S(C)(=O)=O)c2)c1` [Example 75, 2-tert-butyl-3-{3-[3-(methylsulfonyl)phenoxy]phenyl}-8-(trifluoromethyl)imidazo[1,2-a]pyridine], the Emax in test [1] (setting [5]) was found to be 91%. Besides, the EC50 in test [1] (Homo sapiens, THP-1, 18 h) amounted to 395 nM.

As for `CC(C)c1nc2c(C#N)cccn2c1-c1cccc(Oc2cccc(S(C)(=O)=O)c2)c1` [Example 72, 2-isopropyl-3-{3-[3-(methylsulfonyl)phenoxy]phenyl}imidazo[1,2-a]pyridine-8-carbonitrile], the Emax in test [1] (setting [5]) was 79%. Moreover, the EC50 in test [1] (Homo sapiens, THP-1, 18 h) was 510 nM.

With `CC(C)c1nc2c(C(F)(F)F)cccn2c1-c1cccc(OCc2cccc(S(C)(=O)=O)c2)c1` [Example 52, 2-isopropyl-3-(3-{[3-(methylsulfonyl)benzyl]oxy}phenyl)-8-(trifluoromethyl)imidazo[1,2-a]pyridine], the Emax in test [1] (setting [5]) was found to be 86%. Besides, the concentration giving a half-maximal response (EC50) in test [1] (Homo sapiens, THP-1, 18 h) was 2380 nM.

Take `CCS(=O)(=O)c1cccc(Oc2cccc(-c3c(C)nc4c(C(F)(F)F)cccn34)c2)c1` [Example 10, 2-methyl-3-(3-(3-(ethylsulfonyl)phenoxy)phenyl)-8-(trifluoromethyl)imidazo[1,2-a]pyridine]: in test [1] (setting [5]), the Emax was 91%. Further, the EC50 in test [1] (Homo sapiens, THP-1, 18 h) was found to be 552 nM.

Take `CCc1nc2c(C(F)(F)F)cccn2c1-c1cccc(Oc2cccc(S(C)(=O)=O)c2)c1` [Example 17, 2-ethyl-3-(3-(3-(methylsulfonyl)phenoxy)phenyl)-8-(trifluoromethyl)imidazo[1,2-a]pyridine]: in test [1] (setting [5]), the Emax came to 91%. Further, the concentration giving a half-maximal response (EC50) in test [1] (Homo sapiens, THP-1, 18 h) is 99 nM.

Regarding `CC(C)c1nc2c(Cl)cccn2c1-c1cccc(Oc2cccc(S(N)(=O)=O)c2)c1` [Example 98, 3-[3-(8-chloro-2-isopropylimidazo[1,2-a]pyridin-3-yl)phenoxy]benzenesulfonamide], in test [1] (setting [5]), the Emax came to 66%. Besides, in test [1] (Homo sapiens, THP-1, 18 h), the half-maximal effective concentration (EC50) turned out to be 1370 nM.

Regarding `CCc1nc2c(C(F)(F)F)cccn2c1-c1cccc(Cc2cccc(S(C)(=O)=O)c2)c1` [Example 100, 2-ethyl-3-{3-[3-(methylsulfonyl)benzyl]phenyl}-8-(trifluoromethyl)imidazo[1,2-a]pyridine], the Emax in test [1] (setting [5]) turned out to be 82%. Besides, the EC50 in test [1] (Homo sapiens, THP-1, 18 h) is 460 nM.

As to `CS(=O)(=O)c1cccc(Oc2cccc(-c3c(CN4CCCCC4)nc4c(C(F)(F)F)cccn34)c2)c1` [Example 131, 3-{3-[3-(methylsulfonyl)phenoxy]phenyl}-2-(piperidin-1-ylmethyl)-8-(trifluoromethyl)imidazo[1,2-a]pyridine], in test [1] (setting [5]), the Emax was determined as 100%. In addition, the EC50 in test [1] (Homo sapiens, THP-1, 18 h) amounted to 43 nM.

For the compound `CC(C)c1nc2c(Cl)cccn2c1-c1cccc(Oc2cccc(S(C)(=O)=O)c2)c1` [Example 66, 8-chloro-2-isopropyl-3-{3-[3-(methylsulfonyl)phenoxy]phenyl}imidazo[1,2-a]pyridine], the Emax in test [1] (setting [5]) turned out to be 74%. The concentration for a half-maximal effect (EC50) in test [1] (Homo sapiens, THP-1, 18 h) amounted to 625 nM.
